# Measurements reported in EP4596537A1, “NOVEL FLUORENE DERIVATIVE COMPOUND AND USE THEREOF” (JD Bioscience Inc., priority 2022, dated 2024).
# System: PDHE1α S293
# Assay: In vitro PDH S293 phosphorylation inhibition (Western blot) in HEK293 cells
# Assay type: cell-based, human
# Conditions: 5 hours, at 1 µM
# Protocol: HEK293 cells, which are human embryonic kidney cells, were seeded at a density of 2 × 10^6 in a 60 mm dish, and cultured for 24 hours. After replacing the medium with a medium comprising 0.5% FBS, the compounds prepared according to Examples 1 to 54 were treated at various concentrations. 5 hours later, the cells were scraped off and collected into a 15 mL conical tube and centrifuged at 1500 rpm for 10 minutes. The supernatant was discarded, the resultant was washed with 1× PBS, and transferred to a 1.5 mL e-tube, followed by centrifugation at 10,000 rpm for 5 minutes. The supernatant was discarded again, a lysis buffer was added, and the cells were lysed on ice for 30 minutes. The cells were vortexed every 10 minutes to completely lyse, and centrifuged again at 10,000 rpm for 15 minutes at 4°C, and the supernatant was collected. The protein in the supernatant was quantified using BCA technique, and the sample buffer was added to 20 µg of protein and allowed to react at 70°C for 5 minutes. The expression of PDHE1α S232, S293, S300, and total PDHE1α proteins was detected by Western blot, and the resulting PDH S293 phosphorylation inhibition is shown in Table 6. […]
row,Molecule,PDH S293 phosphorylation inhibition
1,N'-(3-chloro-5-(trifluoromethyl)pyridin-2-yl)-2-(4-(2-fluoro-9-hydroxy-9-(trifluoromethyl)-9H-fluoren-4-yl)-1H-pyrazol-1-yl)propanehydrazide [Example 32],++ (50% or more of PHDE1α S293 expression inhibition rate at 1 µM)
2,N'-(3-chloro-5-(trifluoromethyl)pyridin-2-yl)-2-(4-(9-hydroxy-2-methoxy-9-(trifluoromethyl)-9H-fluoren-4-yl)-1H-pyrazol-1-yl)propanehydrazide [Example 33],++ (50% or more of PHDE1α S293 expression inhibition rate at 1 µM)

# Same assay, conditions: Homo sapiens, 5 hours
row,Molecule,inhibition at 1 µM [%]
1,"C[C@@H](C(=O)NNc1ccc(F)cc1)n1cc(-c2cc(F)cc3c2-c2ccccc2[C@@]3(O)C(F)(F)F)cn1 [Example 48, (S)-2-(4-((S)-2-fluoro-9-hydroxy-9-(trifluoromethyl)-9H-fluoren-4-yl)-1H-pyrazol-1-yl)-N'-(4-fluorophenyl)propanehydrazide]",≥ 50
2,"C[C@H](C(=O)NNc1ccc(F)cc1)n1cc(-c2cc(F)cc3c2-c2ccccc2[C@]3(O)C(F)(F)F)cn1 [Example 49, (R)-2-(4-((R)-2-fluoro-9-hydroxy-9-(trifluoromethyl)-9H-fluoren-4-yl)-1H-pyrazol-1-yl)-N'-(4-fluorophenyl)propanehydrazide]",≥ 50
3,"C[C@@H](C(=O)NNc1ccc(F)cc1)n1cc(-c2cc(F)cc3c2-c2ccccc2[C@]3(O)C(F)(F)F)cn1 [Example 50, (S)-2-(4-((R)-2-fluoro-9-hydroxy-9-(trifluoromethyl)-9H-fluoren-4-yl)-1H-pyrazol-1-yl)-N'-(4-fluorophenyl)propanehydrazide]",≥ 50
4,"C[C@H](C(=O)NNc1ccc(F)cc1)n1cc(-c2cc(F)cc3c2-c2ccccc2[C@@]3(O)C(F)(F)F)cn1 [Example 51, (R)-2-(4-((S)-2-fluoro-9-hydroxy-9-(trifluoromethyl)-9H-fluoren-4-yl)-1H-pyrazol-1-yl)-N'-(4-fluorophenyl)propanehydrazide]",≥ 50
5,"COc1cc(-c2cnn(C(C)C(=O)NN3CCCCC3)c2)c2c(c1)C(O)(C(F)(F)F)c1ccccc1-2 (stereo not drawn) [Example 52, 2-(4-(9-hydroxy-2-methoxy-9-(trifluoromethyl)-9H-fluoren-4-yl)-1H-pyrazol-1-yl)-N-(piperidin-1-yl)propanamide]",≥ 50
6,"CC(C(=O)NN1CCCCC1)n1cc(-c2cc(F)cc3c2-c2ccccc2C3(O)C(F)(F)F)cn1 (stereo not drawn) [Example 53, 2-(4-(2-fluoro-9-hydroxy-9-(trifluoromethyl)-9H-fluoren-4-yl)-1H-pyrazol-1-yl)-N-(piperidin-1-yl)propanamide]",≥ 50
7,"CC(C(=O)NN1CCCCCC1)n1cc(-c2cc(F)cc3c2-c2ccccc2C3(O)C(F)(F)F)cn1 (stereo not drawn) [Example 54, N-(azepan-1-yl)-2-(4-(2-fluoro-9-hydroxy-9-(trifluoromethyl)-9H-fluoren-4-yl)-1H-pyrazol-1-yl)propanamide]",≥ 50
